Data taken from US11014915B2, “Selective estrogen receptor degrader” (SUN PHARMA ADVANCED RESEARCH COMPANY LIMITED, priority 2019, dated 2021).

Key:
[1] = system: MCF-7 cells harboring mutant ER (WT/D538G); test: MCF-7 cell growth inhibition assay, D538G; type: cell-based; settings: Homo sapiens, MCF7, 168 h; MCF-7 D538G, seven-day incubation
Description: MCF-7 Cell Growth Inhibition Assay:
The anti-proliferative activity of the test compounds were evaluated in a growth inhibition assay. Briefly, MCF-7 cells harboring ER wild type (Wt), and MCF-7 cells harboring mutant ER (WT/D538G and WT/Y537S) were seeded at a density of 1000 cells/well in 96-well plate in phenol red free RPMI1640 medium supplemented with 10% charcoal stripped fetal bovine serum. The cells were incubated overnight at 37° C. and 5% CO2 followed by the addition of varying concentrations of the test compounds in DMSO. Final concentration of DMSO in the well was 0.5%. Following a seven-day incubation of cells with the test compounds, cell viability was assessed using a Prestoblue™ reagent. The percent inhibition of cell proliferation was calculated by normalizing the cell viability using a vehicle control as 0% inhibition of proliferation.

[2] = Pharmacokinetic study in female SD rats, single oral dose; type: in vivo; settings: rat, 50 mg/kg p.o.; for AUC(0-t) / Cmax / Tmax / half-life / AUC(0-inf): female, SD, plasma, po; for AUC(0-inf): read-out: AUCinf_obs
Description: In drug discovery it is very important to have good oral bioavailability and pharmacokinetic (PK) profile of the compound in order to become a good drug candidate for oral administration. Many compounds having potent in vitro efficacy fail to show therapeutic efficacy in human body. The lack of therapeutic efficacy of these compounds is mainly due to their inappropriate pharmacokinetic properties, such as low bioavailability, short half-life, rapid metabolism, or rapid clearance resulting in a short duration of action. Therefore a good drug candidate should have not only good potency, but also a good pharmacokinetic profile. The pharmacokinetic profile of the compounds of Formula Ia and Ib were determined as per the procedure provided below.
PK profiles were evaluated in female SD rats (n=2) following a single oral dose administration. Rats were fasted for 12-13 hours prior to dosing and feed was provided 2 hours after oral treatments. Dose formulations of compounds were prepared in Tween 80 (0.4% v/v of the total volume of suspension) in 0.5% carboxymethyl cellulose (CMC). Treatments were given at 50 mg/kg, p.o. To evaluate the plasma concentration, 0.2 mL blood was drawn from the rats through the retro-orbital plexus at 0.25, 1, 4, 8, 24, 48 and 72 hour time points post-treatment in Eppendorf tubes containing sodium heparin as an anticoagulant (100 IU/mL), and centrifuged immediately at 8500 rpm for 7 min at 4° C. Plasma was separated and stored at −70° C., until analysis. The analysis of samples was performed as per the method given below:
Working Calibration Standard and Quality Control Standards Preparation:
Working calibration standards were prepared having 0.10, 0.20, 2.00, 4.00, 8.00, 12.00, 16.00, and 20.00 μg/mL concentrations. Quality control standards were prepared at concentrations of […].
Preparation of Working Internal Standards (WIS):
Accurately weighed 5 mg of Carbamazepine was transferred into a 100 mL volumetric flask, dissolved and diluted up to the mark with diluent (0.1% formic acid in water:acetonitrile 30:70 v/v). A WIS of 5 μg/mL was prepared from the above solution.
5 μL of working standards and quality controls were spiked into 95 μL of blank plasma. 25 μl from the above spiked standards and quality controls were aliquoted into microcentrifuge tubes. 25 μL of study samples were also aliquoted into a micro centrifuge tube. 5 μL of WIS was added in zero standards to linearity and study samples except blank. The samples were further vortexed for 10-15 seconds. 150 μL of Milli Q water was added to all prepared samples and vortexed for 10-15 seconds. Samples were loaded on a preconditioned cartridge (preconditioning was done with 1 mL methanol followed by 1 mL Milli Q water). Cartridges were washed with 2×1 mL of Milli Q water. Elution was done with a 1 mL elution solution {acetonitrile: 0.1% formic acid solution (70:30)} in HPLC vials.
Chromatographic separation was achieved on Chiral pack ID (250*4.6 mm, 5μ) with a flow rate of 1.25 mL/min with splitter and injection volume of 20 μL. The sample cooler was maintained at 10° C. The column oven temperature was set to 30° C. The mobile phase consisted of:
Mobile phase A: 1.47 g of ammonium bicarbonate into 1 L of water, 1 ml DEA, pH 9.2±0.1
Mobile phase B: methanol,
wherein mobile phase A was mixed with mobile phase B in the ratio of 30:70 v/v, respectively. The retention time of the compound of Formula Ia, compound of Formula Ib and the internal standard were about 8.7, 7.6 and 4.2 min, respectively. The overall chromatographic run time was 16 minutes.
Detection was performed by tandem mass spectrometry (TSQ Quantum, Discovery MAX, Thermo Electron Corporation) and peak areas were integrated using LCquan software version 2.9 QF1. […]

| Structure (SMILES) | IC50 [1] [nM] | AUC(0-t) [2] [ng·h/mL] | Cmax [2] [ng/mL] | Tmax [2] [h] | half-life [2] [h] | AUC(0-inf) [2] [ng·h/mL] | AUClast of Formula Ia relative to Formula Ib [2] | Cmax of Formula Ia relative to Formula Ib [2] |
| --- | --- | --- | --- | --- | --- | --- | --- | --- |
| CC1=C(c2cc(F)cc(F)c2)[C@H](c2ccc(/C=C/CN3CC(CF)C3)cc2)Oc2cc(O)ccc21 [Formula Ia, (2S)-3-(3,5-difluorophenyl)-2-[4-[(E)-3-[3-(fluoromethyl)azetidin-1-yl]prop-1-enyl]phenyl]-4-methyl-2H-chromen-7-ol] | 2.2 | 7580 | 343 | 4 | 26 | 9800 | about 4.2 fold | about 2.9 fold |
| CC1=C(c2cc(F)cc(F)c2)[C@@H](c2ccc(/C=C/CN3CC(CF)C3)cc2)Oc2cc(O)ccc21 [Formula Ib, (2R)-3-(3,5-difluorophenyl)-2-[4-[(E)-3-[3-(fluoromethyl)azetidin-1-yl]prop-1-enyl]phenyl]-4-methyl-2H-chromen-7-ol] | 345 | 1800 | 119 | 4 | 10 | 2360 | – | – |
